Assay results published in patent EP4624457A1, “I[…] DERIVATIVES, I[…] NEURODEGENERATIVE DISEASES” (Centre National de la Recherche Scientifique, priority 2024, dated 2025).

Tests used:
[1] = molecular target: muscle (α1)2βγδ nAChR subtype (Torpedo marmorata, UniProt P02711+Q6S3H8+Q6S3H9); assay: Two-electrode voltage clamp electrophysiology, antagonistic activity on Xenopus laevis oocytes having incorporated Torpedo muscle-type nAChR; type: cell-based; conditions: TEVC, value (95% CI), toxin purified by the applicant, Figure 5, read-out: nAChR subtype (nM; 95% CI) α12β1γδ (Torpedo)
Excerpt: The emerging cyclic imines toxins (CiTXs) of global distribution across coastal environments that are produced by dinoflagellates move fast up the human food chain through shellfish. The CiTX family includes 44 compounds: 7 gymnodimines (A-E, 12-methylgymnodimine and 16-desmethyl gymnodimine D), 16 spirolides (A-D, G-I, 13-desmethyl spirolide-C, 27-Hydroxy-13-desmethyl spirolide-C, 13,19-didesmethyl spirolide-C, 20-hydroxy-13,19-didesmethyl spirolide- C, 27-hydroxy-13,19-spirolide-C, 27-Oxo-13,19-didesmethyl spirolide-C, 13-desmethyl spirolide-D, 20-hydroxy-13,19-didesmethyl spirolide-D and 20-methyl spirolide-G), 8 pinnatoxins (A-H), 3 pteriatoxins (A-C), 6 prorocentrolides (A-B, 4- hydroxyprorocentrolide, 9,51-dihydro prorocentrolide, 30-sulfate prorocentrolide and 14-O-acetyl-4-hydroxyprorocentrolide), 1 spiroprorocentrimine, 2 portimines (A and B), and 1 kabirimine, (Aráoz et al. (2020) Cyclic imine toxins survey in coastal european shellfish samples: Bioaccumulation and mode of action of 28-O-palmitoyl ester of pinnatoxin-G. First report of portimine-A bioaccumulation. Harmful Algae, 98 [1]). The spiroimine moiety is the major feature characterizing cyclic imine toxins. […]

cancer cell lines = assay: Cytotoxic activity of CiTX, comparison of orders of magnitude; type: cell-based; conditions: this work
Description: Cell viability. […] The cell viability assay was performed using portimine-A as a positive control (Table 4). […] Table 4. Cytotoxic activity of portimine-A and ingrilimine

Chain of muscle (α1)2βγδ nAChR subtype (P02711 25-461): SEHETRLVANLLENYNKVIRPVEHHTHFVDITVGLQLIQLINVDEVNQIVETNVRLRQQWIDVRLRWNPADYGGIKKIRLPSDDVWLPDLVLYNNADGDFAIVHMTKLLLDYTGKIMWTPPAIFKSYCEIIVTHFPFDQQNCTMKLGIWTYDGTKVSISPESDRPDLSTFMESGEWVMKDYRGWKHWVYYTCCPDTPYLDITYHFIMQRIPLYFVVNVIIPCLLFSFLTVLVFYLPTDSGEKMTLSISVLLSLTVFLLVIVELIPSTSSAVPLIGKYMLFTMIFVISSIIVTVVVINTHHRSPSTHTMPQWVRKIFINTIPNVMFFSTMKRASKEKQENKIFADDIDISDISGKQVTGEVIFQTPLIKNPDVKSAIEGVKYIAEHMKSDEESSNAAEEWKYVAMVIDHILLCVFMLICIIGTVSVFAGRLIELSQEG
Chain of muscle (α1)2βγδ nAChR subtype (Q6S3H9 entry or part of it): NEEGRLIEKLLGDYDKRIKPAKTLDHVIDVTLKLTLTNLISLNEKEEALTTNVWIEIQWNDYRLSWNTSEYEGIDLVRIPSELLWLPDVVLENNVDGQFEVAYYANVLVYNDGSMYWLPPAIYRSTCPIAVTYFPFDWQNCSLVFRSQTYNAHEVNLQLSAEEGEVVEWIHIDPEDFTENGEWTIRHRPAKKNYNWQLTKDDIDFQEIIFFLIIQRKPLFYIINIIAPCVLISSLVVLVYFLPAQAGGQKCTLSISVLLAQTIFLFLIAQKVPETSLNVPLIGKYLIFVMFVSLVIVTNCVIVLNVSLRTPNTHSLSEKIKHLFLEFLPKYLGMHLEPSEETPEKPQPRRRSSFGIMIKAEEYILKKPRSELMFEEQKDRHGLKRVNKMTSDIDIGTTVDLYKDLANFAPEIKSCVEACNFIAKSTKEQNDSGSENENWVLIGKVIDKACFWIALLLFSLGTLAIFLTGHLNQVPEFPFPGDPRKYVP
Chain of muscle (α1)2βγδ nAChR subtype (Q6S3H8 entry or part of it): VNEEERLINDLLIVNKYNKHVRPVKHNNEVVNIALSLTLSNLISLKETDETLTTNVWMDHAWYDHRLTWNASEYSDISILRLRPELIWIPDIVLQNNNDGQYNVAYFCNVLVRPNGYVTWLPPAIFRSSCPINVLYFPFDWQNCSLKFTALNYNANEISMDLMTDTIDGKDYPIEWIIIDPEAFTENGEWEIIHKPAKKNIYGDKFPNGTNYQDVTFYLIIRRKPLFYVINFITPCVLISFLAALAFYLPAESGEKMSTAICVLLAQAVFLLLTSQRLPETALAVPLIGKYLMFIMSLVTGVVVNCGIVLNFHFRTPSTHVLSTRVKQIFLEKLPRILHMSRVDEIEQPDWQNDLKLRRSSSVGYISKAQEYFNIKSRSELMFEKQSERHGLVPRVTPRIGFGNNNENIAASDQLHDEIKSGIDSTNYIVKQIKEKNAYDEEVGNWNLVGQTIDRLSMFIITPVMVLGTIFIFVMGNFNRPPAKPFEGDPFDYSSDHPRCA
Chain of muscle (α1)2βγδ nAChR subtype (Q6S3I0 entry or part of it, further chain): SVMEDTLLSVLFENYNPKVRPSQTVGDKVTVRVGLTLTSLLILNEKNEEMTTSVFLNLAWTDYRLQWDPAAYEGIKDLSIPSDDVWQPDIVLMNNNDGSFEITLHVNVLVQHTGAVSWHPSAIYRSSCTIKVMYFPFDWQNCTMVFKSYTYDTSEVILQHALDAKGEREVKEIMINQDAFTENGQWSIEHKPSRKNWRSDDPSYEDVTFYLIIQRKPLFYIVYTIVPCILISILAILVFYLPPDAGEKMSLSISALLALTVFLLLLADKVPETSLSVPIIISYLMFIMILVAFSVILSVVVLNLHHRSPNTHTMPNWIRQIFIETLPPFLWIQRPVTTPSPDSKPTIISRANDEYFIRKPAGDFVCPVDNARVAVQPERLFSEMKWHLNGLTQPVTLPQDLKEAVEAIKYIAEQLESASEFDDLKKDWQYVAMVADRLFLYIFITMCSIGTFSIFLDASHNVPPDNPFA

Row | SMILES | IC50 [1] | cytotoxic activities, order of magnitude (cancer cell lines)
1 | C=CC1=C[C@@H]2[C@@H]3O[C@]4(CC[C@H](O4)[C@@H](C)C[C@@H](O)C3=O)C[C@H](O)C3=NCC[C@@]32CC1 [Portimine-A] | 11900 nM | 
2 | C=CC1=C[C@@H]2C[C@@H](O)[C@@H](O)/C(C)=C/C/C(C)=C/CCC3=NCCC[C@]32CC1 [Ingrilimine, ingrilimine] |  | ~10^-8 M
